Measured values published in patent publication US20140135499A1, “METHODS FOR THE TOTAL CHEMICAL […] OF ENANTIOMERICALLY-PURE 7-(2'-[…]) ETHYL CAMPTOTHECIN” (BioNumerik Pharmaceuticals, Inc., priority 2012, published 2014).
Read-outs that look alike come from different tables or passages of the source.

Assays:
[1] = sodium hydroxide formulation, hydrolysed E-ring; cited from earlier work
[2] = test system: Wild type human ovarian cancer cells (A2780/WT); assay: SRB cytotoxicity assay, inhibition of cell growth, A2780/WT; format: cell-based; conditions: 2 hour treatment, SRB assay at 5 days
Procedure: (§1) Wild type human ovarian cancer cells (A2780/WT) and doxorubicin resistant human ovarian cancer cells (A2780/DX5) were cultured in RPMI 1640 medium supplemented with 10% fetal bovine serum and 2 mM glutamine, and grown in a 37° C. incubator with 5% CO2. BNP1350 synthesized from camptothecin natural product (purchased from APAC) and BNP1350 synthesized via the Total Synthesis Scheme at BioNumerik Pharmaceuticals, Inc. were dissolved in DMSO for use in cytotoxicity experiments where inhibition of cell growth was measured using the SRB assay. Briefly, cells were seeded (450 cells/well in 100 μL volume) in a 96-well microtiter plates and allowed to attach for 24 hours prior to treatment with either natural product BNP1350 or total synthesis BNP1350 for 2 hours. Following this 2 hour treatment, BNP1350 was removed, the cells were washed with drug-free media (200 μL), and then drug-free media (200 μL) was added to the cells which were allowed to continue growing at 37° C. with 5% CO2 before the SRB assay was performed (total experimental time from the time of initial seeding was 5 days, during which 5 cell doublings occurred).

[3] = test system: doxorubicin resistant human ovarian cancer cells (A2780/DX5); assay: SRB cytotoxicity assay, inhibition of cell growth, A2780/DX5; format: cell-based; conditions: for IC50: A2780/DX5, 2 hour treatment, SRB assay at 5 days; for Resistance Factor Ratio A2780/DX5 IC50/A2780WT IC50: ratio of average IC50 values
Procedure: as §1

[4] = test system: panel of over twenty (20) human cancer cell lines; assay: In vitro studies on a panel of human cancer cell lines; format: cell-based
Description: In contrast, Karenitecin is a highly lipophilic camptothecin derivative characterized by substantial lactone stability and long plasma half-life. […] The free drug concentration in blood plasma is generally considered to be the pharmacologically active form in clinical pharmacology.

[5] = test system: angiogenesis (neovascularization); conditions: mice cornea model; dose levels of 210 mg/kg; cited from earlier work

Q: Which “anti-tumor potency relative to non-hydrolyzed lactone form of CPT” value [1] does the source give for `CC[C@@](O)(C(=O)O)c1cc2n(c(=O)c1CO)Cc1cc3ccccc3nc1-2` [carboxylate form of CPT] here?
A: The value was “one-tenth or less”.

Q: Which results are given for `CC[C@@]1(O)C(=O)OCc2c1cc1n(c2=O)Cc2c-1nc1ccccc1c2CC[Si](C)(C)C` [Total Synthesis BNP1350, (4S)-4-ethyl-4-hydroxy-11-[2-(trimethylsilyl)ethyl]-1H-pyrano[3′:4′:6,7]indolizino[1,2-b]quinoline-3,14(4H,12H)-dione]?
A: IC50 ([2]; Test 1, listed as Natural Product BNP1350, read-out: IC50 (nM) A2780/WT, Test 1): 6.7 nM; IC50 ([2]; Test 1, read-out: IC50 (nM) A2780/WT, Test 1): 6 nM; IC50 ([2]; Test 2, listed as Natural Product BNP1350, read-out: IC50 (nM) A2780/WT, Test 2): 5.4 nM; IC50 ([2]; Test 2, read-out: IC50 (nM) A2780/WT, Test 2): 6.8 nM; IC50 ([2]; average of Test 1 and Test 2, listed as Natural Product BNP1350, read-out: IC50 (nM) A2780/WT, Average): 6.1 nM; IC50 ([2]; average of Test 1 and Test 2, read-out: IC50 (nM) A2780/WT, Average): 6.4 nM; IC50 ([3]; Test 1, listed as Natural Product BNP1350, read-out: IC50 (nM) A2780/DX5, Test 1): 8.9 nM; IC50 ([3]; Test 1, read-out: IC50 (nM) A2780/DX5, Test 1): 11.9 nM; IC50 ([3]; Test 2, listed as Natural Product BNP1350, read-out: IC50 (nM) A2780/DX5, Test 2): 11.6 nM; IC50 ([3]; Test 2, read-out: IC50 (nM) A2780/DX5, Test 2): 11.7 nM; IC50 ([3]; average of Test 1 and Test 2, listed as Natural Product BNP1350, read-out: IC50 (nM) A2780/DX5, Average): 10.3 nM; IC50 ([3]; average of Test 1 and Test 2, read-out: IC50 (nM) A2780/DX5, Average): 11.8 nM; Resistance Factor Ratio A2780/DX5 IC50/A2780WT IC50 [3]: 1.8; Resistance Factor Ratio A2780/DX5 IC50/A2780WT IC50 ([3]; listed as Natural Product BNP1350): 1.7; antitumor potency compared with Topotecan or SN-38 [4]: significantly more potent

Q: Which neovascularization [5] does the source give for `CCc1c2c(nc3ccc(OC(=O)N4CCC(N5CCCCC5)CC4)cc13)-c1cc3c(c(=O)n1C2)COC(=O)[C@]3(O)CC` [Irinotecan, 7-ethyl-10-[4-(1-piperidino)-1-piperidino]carbonyloxy camptothecin] here?
A: Its neovascularization is “significant reduction”.
